Among the data in US20150175608A1, “NOVEL 4-SUBSTITUTED 1,3-DIHYDRO-2H-BENZIMIDAZOL-2-ONE DERIVATIVES SUBSTITUTED WITH BENZIMIDAZOLES AS RESPIRATORY SYNCYTIAL VIRUS ANTIVIRAL AGENTS” (Janssen R&D Ireland, priority 2012, published 2015) are EC50, CC50 and melting point values, retold here.

One data set relates to rgRSV224 virus. In words: Antiviral activity: rgRSV224 replication (GFP expression) in HeLa cells. In kind it is cell-based. To be noted: human respiratory syncytial virus, 72 h, read-out: WT activity EC50. The protocol: (§1) Antiviral Activity Black 96-well clear-bottom microtiter plates (Corning, Amsterdam, The Netherlands) were filled in duplicate using a customized robot system with serial 4-fold dilutions of compound in a final volume of 50 μl culture medium [RPMI medium without phenol red, 10% FBS, 0.04% gentamycin (50 mg/ml) and 0.5% DMSO]. Then, 100 μl of a HeLa cell suspension (5×10^4 cells/ml) in culture medium was added to each well followed by the addition of 50 μl rgRSV224 (MOI=0.02) virus in culture medium using a multidrop dispenser (Thermo Scientific, Erembodegem, Belgium). rgRSV224 virus is an engineered virus that includes an additional GFP gene (Hallak et al, 2000) and was in-licensed from the NIH (Bethesda, Md., USA). Medium, virus- and mock-infected controls were included in each test. Cells were incubated at 37° C. in a 5% CO2 atmosphere. Three days post-virus exposure, viral replication was quantified by measuring GFP expression in the cells by a MSM laser microscope (Tibotec, Beerse, Belgium). The EC50 was defined as the 50% inhibitory concentration for GFP expression. In parallel, compounds were incubated for three days in a set of white 96-well microtiter plates (Corning) and the cytotoxicity of compounds in HeLa cells was determined by measuring the ATP content of the cells using the ATPlite kit (PerkinElmer, Zaventem, Belgium) according to the manufacturer's instructions. The CC50 was defined as the 50% concentration for cytotoxicity.

A short description of another data set: in vitro. The format is cell-based. The note with it: human. On the procedure: as §1

Turning to `Cc1cccc2c1n(C1CC1)c(=O)n2Cc1nc2cc(Cl)ccc2n1CCCS(C)(=O)=O` [Compound P3, 1-((5-Chloro-1-(3-(methylsulfonyl)propyl)-1H-benzo[d]imidazol-2-yl)-methyl)-3-cyclopropyl-4-methyl-1H-benzo[d]imidazol-2(3H)-one], the EC50 with rgRSV224 virus was 0.0051 µM. The midpoint of cytotoxicity in “in vitro”, the CC50 at 3 days, lay at 64.6 µM.

As to `CS(=O)(=O)CCCn1c(Cn2c(=O)n(C3CC3)c3c(Cl)cccc32)nc2cc(Cl)ccc21` [Compound P2, 4-Chloro-1-((5-chloro-1-(3-(methylsulfonyl)propyl)-1H-benzo[d]imidazol-2-yl)methyl)-3-cyclopropyl-1H-benzo[d]imidazol-2(3H)-one], the EC50 in the data set with rgRSV224 virus worked out at 0.0074 µM. In the data set “in vitro”, this molecule yielded a CC50 at 3 days above 100 µM.

Turning to `Cc1cncc2c1n(C1CC1)c(=O)n2Cc1nc2cc(Cl)ccc2n1CCCS(C)(=O)=O` [Compound P4, 3-((5-chloro-1-(3-(methylsulfonyl)propyl)-1H-benzo[d]imidazol-2-yl)methyl)-1-cyclopropyl-7-methyl-1H-imidazo[4,5-c]pyridin-2(3H)-one], the EC50 in the data set on rgRSV224 virus was determined as 0.0014 µM. This molecule registered a CC50 at 3 days in “in vitro” above 100 µM.

`CS(=O)(=O)CCCn1c(Cn2c(=O)n(C3CC3)c3c(Cl)cncc32)nc2cc(Cl)ccc21` [Compound P1, 7-Chloro-3-((5-chloro-1-(3-(methylsulfonyl)-propyl)-1H-benzo[d]imidazol-2-yl)methyl)-1-cyclopropyl-1H-imidazo[4,5-c]pyridin-2(3H)-one]: in the data set with rgRSV224 virus, the EC50 came to 0.0017 µM. The molecule also gave a CC50 at 3 days in the data set “in vitro” above 100 µM.

In turn, `CS(=O)(=O)CCCn1c(Cn2c(=O)n(CC(F)(F)F)c3c(Cl)cncc32)nc2cc(Cl)ccc21` [Compound P6, 7-chloro-3-((5-chloro-1-(3-(methylsulfonyl)propyl)-1H-benzo[d]imidazol-2-yl)methyl)-1-(2,2,2-trifluoroethyl)-1H-imidazo[4,5-c]pyridin-2(3H)-one] registered a melting point of 232.82 °C. Moreover, the EC50 with rgRSV224 virus is 0.009 µM. This molecule also came in with a CC50 at 3 days in the data set “in vitro” above 100 µM.

As for `CS(=O)(=O)CCCn1c(Cn2c(=O)n(C3CC3)c3c(C(F)(F)F)cccc32)nc2cc(Cl)ccc21` [Compound P5, 1-((5-chloro-1-(3-(methylsulfonyl)propyl)-1H-benzo[d]imidazol-2-yl)-methyl)-3-cyclopropyl-4-(trifluoromethyl)-1H-benzo[d]imidazol-2(3H)-one], the melting point came to 210.18 °C. Further, the EC50 in the data set on rgRSV224 virus stood at 0.028 µM. This molecule showed a CC50 at 3 days in the data set “in vitro” above 100 µM.

`CS(=O)(=O)CCCn1c(Cn2c(=O)n(CC(F)(F)F)c3c(Cl)cccc32)nc2cc(Cl)ccc21` [Compound P7, 4-chloro-1-((5-chloro-1-(3-(methylsulfonyl)propyl)-1H-benzo[d]imidazol-2-yl)methyl)-3-(2,2,2-trifluoroethyl)-1H-benzo[d]imidazol-2(3H)-one]: the EC50 in the data set with rgRSV224 virus turned out to be 0.012 µM. Also, the CC50 at 3 days in the data set “in vitro” worked out at 69 µM.

As a reminder, the EC50 is the concentration giving half of the maximal effect. In general, CC50 refers to the concentration that lowers cell viability or growth by half. The low end stands for harm at low concentration, the high end for better tolerance by the cells. The melting point is the temperature of the solid-liquid transition.
